This passage reports Activity, activity and EC50 results from ChEMBL document CHEMBL4680157, “Design, synthesis and biological evaluation of novel TRβ selective agonists sustained by ADME-toxicity analysis” (Eur J Med Chem, 2020).

The nature of series [1]: Toxicity in F344 rat assessed as effect on serum glucose level at 75 ug per 100 g body weight, ig administered daily for 3 days (reference value: 151 +/- 13.5 mg/dl). The settings on record: in vivo, po, 72 h, dose 75 µg, time 3 day.
The nature of series [2]: Toxicity in F344 rat assessed as effect on serum cholesterol level at 50 ug per 100 g body weight, ig administered daily for 3 days (reference value: 67.2 +/- 2.5 mg/dl). Conditions: in vivo, po, 72 h, dose 50 µg, time 3 day.
Series [3] is described as follows: Toxicity in F344 rat assessed as effect on serum AST/GOT level at 100 ug per 100 g body weight, ig administered daily for 3 days (reference value: 153 +/- 11 U/L). Conditions: in vivo, po, 72 h, dose 100 µg, time 3 day.
The target in series [4] is T1, TRalpha (thyroid hormone receptor alpha) (Homo sapiens, UniProt P10827).
T1 sequence (P10827 whole entry): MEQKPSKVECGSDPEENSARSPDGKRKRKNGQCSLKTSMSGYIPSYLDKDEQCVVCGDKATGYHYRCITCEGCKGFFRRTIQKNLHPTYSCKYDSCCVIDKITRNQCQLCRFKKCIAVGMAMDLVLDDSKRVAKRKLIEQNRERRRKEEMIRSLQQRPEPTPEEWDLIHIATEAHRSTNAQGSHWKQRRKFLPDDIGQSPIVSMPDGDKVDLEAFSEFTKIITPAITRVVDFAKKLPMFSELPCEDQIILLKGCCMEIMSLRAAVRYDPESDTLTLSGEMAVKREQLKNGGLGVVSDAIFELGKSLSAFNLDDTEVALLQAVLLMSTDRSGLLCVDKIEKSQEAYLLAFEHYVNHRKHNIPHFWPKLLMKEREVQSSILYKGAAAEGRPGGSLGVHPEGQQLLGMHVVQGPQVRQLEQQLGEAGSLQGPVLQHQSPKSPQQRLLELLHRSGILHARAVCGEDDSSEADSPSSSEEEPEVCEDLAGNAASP
Description: Agonist activity at TRalpha (unknown origin) at 1 uM by Lanthascreen TR-FRET assay relative to control. The settings on record: read-out: Activity.

The nature of series [5]: Toxicity in F344 rat assessed as effect on serum cholesterol level at 75 ug per 100 g body weight, ig administered daily for 3 days (reference value: 67.2 +/- 2.5 mg/dl). The settings on record: in vivo, po, 72 h, dose 75 µg, time 3 day.
Series [6] can be described thus: Toxicity in F344 rat assessed as effect on serum bilirubin level at 75 ug per 100 g body weight, ip administered daily for 3 days (reference value: 1.4 +/- 0.2 mg/dl). The format is organism-based. Conditions: in vivo, 72 h, dose 75 µg, time 3 day.
Series [7] is described as follows: Toxicity in F344 rat assessed as effect on serum triglycerides level at 75 ug per 100 g body weight, ip administered daily for 3 days (reference value: 86.8 +/- 10.4 mg/dl). Conditions: in vivo, 72 h, dose 75 µg, time 3 day. The format is organism-based.
A short description of series [8]: Toxicity in F344 rat assessed as effect on serum cholesterol level at 100 ug per 100 g body weight, ig administered daily for 3 days (reference value: 67.2 +/- 2.5 mg/dl). The settings on record: in vivo, po, 72 h, dose 100 µg, time 3 day.
Series [9] is described as follows: Toxicity in F344 rat assessed as effect on serum AST/GOT level at 75 ug per 100 g body weight, ip administered daily for 3 days (reference value: 153 +/- 11 U/L). Format: organism-based. The settings on record: in vivo, 72 h, dose 75 µg, time 3 day.
Series [10] is described as follows: Toxicity in F344 rat assessed as effect on serum triglycerides level at 50 ug per 100 g body weight, ig administered daily for 3 days (reference value: 86.8 +/- 10.4 mg/dl). The settings on record: in vivo, po, 72 h, dose 50 µg, time 3 day.
Series [11] addresses T2, Thyroid hormone receptor alpha (Homo sapiens, UniProt P10827).
T2 sequence (P10827 whole entry): T1 sequence (P10827 whole entry)
The series can be described thus: Agonist activity at TRalpha (unknown origin) by Lanthascreen TR-FRET assay. In general terms: Time-resolved FRET reads energy transfer from a long-lived donor to a nearby acceptor.

The target of series [12] is T3, Thyroid hormone receptor beta (Homo sapiens, UniProt P10828).
T3 sequence (P10828 whole entry): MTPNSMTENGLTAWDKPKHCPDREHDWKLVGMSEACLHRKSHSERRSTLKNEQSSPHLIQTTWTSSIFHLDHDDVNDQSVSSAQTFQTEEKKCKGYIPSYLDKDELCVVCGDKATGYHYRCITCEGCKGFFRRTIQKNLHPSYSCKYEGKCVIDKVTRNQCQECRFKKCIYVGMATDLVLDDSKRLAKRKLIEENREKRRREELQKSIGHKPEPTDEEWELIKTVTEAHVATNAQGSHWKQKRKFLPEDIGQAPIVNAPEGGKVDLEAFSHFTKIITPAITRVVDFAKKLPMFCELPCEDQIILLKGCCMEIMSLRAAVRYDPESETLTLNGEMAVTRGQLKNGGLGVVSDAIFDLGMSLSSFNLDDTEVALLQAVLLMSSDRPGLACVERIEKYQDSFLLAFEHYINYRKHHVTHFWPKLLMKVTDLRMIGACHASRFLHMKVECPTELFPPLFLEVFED
The series can be described thus: Agonist activity at TRbeta (unknown origin) by Lanthascreen TR-FRET assay.

`Cc1cc(OCC(=O)O)cc(C)c1Cc1ccc(N)c(C(C)C)c1`: the Activity in [1] stood at 153 mg/dL; in [2] it was 69.5 mg/dL; in series [3] it was 102 U/L; in series [5], 68.6 mg/dL; in series [6] it was 1.1 mg/dL; in series [7], 79.6 mg/dL. Further, the results for the Activity in series [8], in series [9] and in series [10] were 70.1 mg/dL, 123 U/L and 68.3 mg/dL, respectively. Also, the activity at 1 µM in [4] worked out at 30%.

For `CC(=O)Nc1ccc(Cc2c(C)cc(OCC(=O)O)cc2C)cc1C(C)C`, the Activity in [1] is 132 mg/dL; in [2] it was 68 mg/dL; in series [3], 108 U/L; in series [5], 71.4 mg/dL; in [6] it was 1.5 mg/dL; in [7] it was 74.2 mg/dL. Also, the figures for the Activity in [8], in series [9] and in [10] were 67.6 mg/dL, 134 U/L and 70.4 mg/dL, respectively.

Usually EC50 stands for the concentration giving half of the maximal effect. The low end stands for greater potency, the high end for weaker potency. As for `Cc1cc(OCC(=O)O)cc(C)c1Cc1ccc(O)cc1`, the results for the EC50 in [11] and in [12] were 54 nM and 32 nM, respectively.
